The target in the assay is T1, telomerase (catalytic subunit TERT) (Homo sapiens, UniProt O14746).
T1 construct: with telomerase RNA component TER (endogenous telomerase ribonucleoprotein in MCF7 lysate)
The experiment in a line: q-TRAP-ligand assay in MCF7 cell lysate, compound added before telomere elongation. Type of assay: biochemical.

Structures can show the parent of a compound that is named as a salt.

T1 sequence (O14746 whole entry): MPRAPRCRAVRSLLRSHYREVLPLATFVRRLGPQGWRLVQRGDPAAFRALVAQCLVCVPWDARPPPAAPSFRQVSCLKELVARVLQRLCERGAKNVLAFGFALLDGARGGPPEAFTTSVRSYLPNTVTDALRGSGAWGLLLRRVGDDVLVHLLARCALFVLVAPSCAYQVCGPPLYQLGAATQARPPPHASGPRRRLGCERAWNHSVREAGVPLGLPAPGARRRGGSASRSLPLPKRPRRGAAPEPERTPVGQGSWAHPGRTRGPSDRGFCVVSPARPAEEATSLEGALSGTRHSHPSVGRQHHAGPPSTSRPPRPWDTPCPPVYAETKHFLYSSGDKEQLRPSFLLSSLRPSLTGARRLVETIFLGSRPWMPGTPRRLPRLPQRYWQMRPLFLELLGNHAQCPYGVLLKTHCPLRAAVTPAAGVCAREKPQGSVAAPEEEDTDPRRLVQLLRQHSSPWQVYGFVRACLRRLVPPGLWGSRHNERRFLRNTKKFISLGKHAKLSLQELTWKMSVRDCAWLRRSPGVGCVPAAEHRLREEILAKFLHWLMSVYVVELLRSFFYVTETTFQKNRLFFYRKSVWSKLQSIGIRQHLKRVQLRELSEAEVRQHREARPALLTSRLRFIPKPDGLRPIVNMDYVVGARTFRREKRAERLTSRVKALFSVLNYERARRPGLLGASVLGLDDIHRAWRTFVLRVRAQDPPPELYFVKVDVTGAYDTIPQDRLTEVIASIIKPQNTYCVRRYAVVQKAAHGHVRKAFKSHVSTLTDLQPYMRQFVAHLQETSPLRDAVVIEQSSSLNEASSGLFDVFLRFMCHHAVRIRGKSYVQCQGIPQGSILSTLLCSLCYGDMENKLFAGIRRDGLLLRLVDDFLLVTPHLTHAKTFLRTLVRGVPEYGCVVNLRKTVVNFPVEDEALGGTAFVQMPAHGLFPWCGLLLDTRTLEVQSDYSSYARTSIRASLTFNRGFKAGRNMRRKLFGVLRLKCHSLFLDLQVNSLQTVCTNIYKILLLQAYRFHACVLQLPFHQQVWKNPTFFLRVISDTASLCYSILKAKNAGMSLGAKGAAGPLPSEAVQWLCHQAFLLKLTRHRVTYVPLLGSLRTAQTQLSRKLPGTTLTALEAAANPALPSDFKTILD

The term IC50 denotes the midpoint of a concentration-inhibition curve. Read a low IC50 as greater potency in that assay. The molecule `COc1cc2c(ccc3c(CCN(C)Cc4ccccc4)cc(O)c(OC)c32)cc1O` [BSB, N-benzylsecoboldine hydrochloride] returned an IC50 of 0.17 ± 0.1 µM.

As to `COc1cc2c(cc1O)C[C@H]1c3c(cc(O)c(OC)c3-2)CCN1C` [Boldine, 1,10-dimethoxy-2,9-dihydroxyaporphine], half-maximal inhibition (IC50) required 68 ± 2.5 µM.

(Values after paper PMC5979471, “Telomerase Inhibition by a New Synthetic Derivative of the Aporphine Alkaloid Boldine” (International Journal of Molecular Sciences, 2018).)
